Data as given in ChEMBL document CHEMBL1158032, “Manaarenolides A-I, diterpenoids from the soft coral Sinularia manaarensis” (J Nat Prod, 2006).
In brackets after ≈: the same amount, converted by molar mass.

What was measured:
[1] = Cytotoxicity against human Hepa59T/VGH cells by MTT assay; type: functional; settings: HEPA 59T/VGH, read-out: ED50 (the source's name)
[2] = system: KB; experiment: Cytotoxicity against human KB cells by MTT assay; type: functional; settings: read-out: ED50 (the source's name)
[3] = system: HeLa; experiment: Cytotoxicity against human HeLa cells by MTT assay; type: functional; settings: read-out: ED50 (the source's name)
[4] = Cytotoxicity against human Med cells by MTT assay; type: cell-based; settings: read-out: ED50 (the source's name)

In the case of `C=C1C(=O)O[C@@H]2C[C@H]1C/C=C(\C)[C@@H](O)CC/C(C)=C/CC[C@]2(C)O` [MANAARENOLIDE G], the EC50 [1] was 7.2 µg/mL (≈ 21.5 µM), the EC50 [2] was 8.7 µg/mL (≈ 26 µM) and the EC50 [3] was 10.9 µg/mL (≈ 32.6 µM). For the same molecule, the CC50 [4] was 13.4 µg/mL (≈ 40.1 µM).

Work on `C=C1C(=O)O[C@@H]2C[C@H]1C/C=C(/C)[C@@H](O)CC/C(C)=C/CC[C@]2(C)O` [MANAARENOLIDE H] yielded an EC50 [1] of 7.4 µg/mL (≈ 22.1 µM), an EC50 [2] of 7.6 µg/mL (≈ 22.7 µM) and an EC50 [3] of 9.3 µg/mL (≈ 27.8 µM). It also gave a CC50 [4] of 5.8 µg/mL (≈ 17.3 µM).
